Here are results for eight compounds from CN111686108A, “表小檗碱在制备抗幽门螺旋杆菌感染药物中的应用” (Southwest University, priority 2020, dated 2020).

Data set [1] relates to Helicobacter pylori 11637 [幽门螺旋杆菌(11637)]. Kind of data set: MIC determination by two-fold (倍半) dilution on MH agar, single drugs and mixed drugs, H. pylori 11637. The format is cell-based. The conditions noted are these: for MIC: Helicobacter pylori.
For another data set, the target named is aldose reductase [醛糖还原酶] (Homo sapiens, UniProt P15121). The conditions noted are these: in words; background; cited from earlier work.
Data set [2] concerns the target cytochrome P450 isoform CYP2D6 [细胞色素P450亚型CYP2D6] (Homo sapiens, UniProt P10635). The following applies: in words; background; cited from earlier work.
Another data set concerns α receptor [α受体]. The conditions noted are these: in words; background; cited from earlier work.
The conditions of data set [3]: in words, background; cited from earlier work.
For the next data set, the target named is BACE1 (Homo sapiens, UniProt P56817). The following applies: in words; background; cited from earlier work.
BACE1, sequence (P56817 46-501, species assumed): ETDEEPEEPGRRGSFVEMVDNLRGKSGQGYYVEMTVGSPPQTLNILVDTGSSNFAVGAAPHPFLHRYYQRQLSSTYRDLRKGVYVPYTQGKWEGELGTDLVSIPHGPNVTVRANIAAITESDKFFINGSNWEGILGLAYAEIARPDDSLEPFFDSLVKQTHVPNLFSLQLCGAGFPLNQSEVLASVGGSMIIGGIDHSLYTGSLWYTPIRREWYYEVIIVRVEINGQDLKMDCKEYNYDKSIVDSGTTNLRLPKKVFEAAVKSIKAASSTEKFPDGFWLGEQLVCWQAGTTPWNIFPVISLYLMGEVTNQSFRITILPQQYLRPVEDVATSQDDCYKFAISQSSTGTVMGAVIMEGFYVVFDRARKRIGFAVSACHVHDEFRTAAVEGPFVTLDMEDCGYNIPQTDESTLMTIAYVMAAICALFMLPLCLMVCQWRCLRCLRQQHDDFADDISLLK
[4] abbreviates: drug alone, H. pylori 11637, MH agar, 85%N2, 10%CO2, 5%O2, 48~72h, read-out: MIC.

Each structure is given as a SMILES string. ≈ marks a conversion by molar mass, not a printed value. Like-named read-outs stand apart in the source and are kept apart here.

cytochrome P450 isoform CYP2D6 [细胞色素P450亚型CYP2D6], sequence (P10635 whole entry, canonical isoform): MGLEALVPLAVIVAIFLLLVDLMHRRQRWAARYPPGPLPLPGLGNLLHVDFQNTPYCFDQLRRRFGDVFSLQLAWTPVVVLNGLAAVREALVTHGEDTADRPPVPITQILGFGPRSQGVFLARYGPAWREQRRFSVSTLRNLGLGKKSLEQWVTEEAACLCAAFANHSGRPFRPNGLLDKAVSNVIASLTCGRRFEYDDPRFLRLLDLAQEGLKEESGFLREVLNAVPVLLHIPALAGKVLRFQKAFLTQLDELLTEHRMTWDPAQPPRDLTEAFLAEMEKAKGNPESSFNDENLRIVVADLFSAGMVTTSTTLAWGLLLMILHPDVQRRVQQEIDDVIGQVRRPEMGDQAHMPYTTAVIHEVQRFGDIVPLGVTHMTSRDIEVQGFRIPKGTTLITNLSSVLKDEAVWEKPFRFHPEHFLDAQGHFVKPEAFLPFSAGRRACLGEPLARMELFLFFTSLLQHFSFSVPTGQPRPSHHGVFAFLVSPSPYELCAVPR

As to `Cc1ncc([N+](=O)[O-])n1CCO` [甲, 甲硝唑], the minimal inhibitory concentration (MIC) in data set [1] (setting [4]) worked out at 1.56 µg/mL (≈ 9.11 µM).

For `O=C1OCCN1/N=C/c1ccc([N+](=O)[O-])o1` [呋, 呋喃唑酮], in data set [1] (setting [4]), the MIC turned out to be 1.56 µg/mL (≈ 6.93 µM).

Take `COc1ccc2cc3[n+](cc2c1OC)CCc1cc2c(cc1-3)OCO2.[Cl-]` [BBR, 小檗碱盐酸盐]: the MIC in data set [1] (72 h) amounted to 50 µg/mL. For the same compound, in data set [1] (in words, combined with omeprazole (奥美拉唑), from table 1), the synergistic effect entry is given as “有一定的协同作用”.

For `COc1cc2c(cc1OC)-c1cc3ccc4c(c3c[n+]1CC2)OCO4` [e-BBR, 表小檗碱], the minimum inhibitory concentration (MIC) in data set [1] (setting [4]) came to 100 µg/mL. Further, the anti-Hp activity entry in data set [1] (in words, compared with berberine (小檗碱), from table 1) is “低于小檗碱”. Also, the “inhibition of aldose reductase activity” value on aldose reductase [醛糖还原酶] is given as “抑制醛糖还原酶活性”. In addition, the “inhibitory activity on CYP2D6” value in data set [2] is recorded as “较强的抑制活性”. For the same compound, the “α receptor blocking effect” value in the data set with α receptor [α受体] was “α受体阻断作用”. Also, in data set [3], the “in vitro hypoglycaemic activity” value was “体外降血糖活性”. In addition, the BACE1 inhibitory activity result on BACE1 is “非竞争性BACE1抑制活性”.

Consider `C[C@H]1COc2c(N3CCN(C)CC3)c(F)cc3c(=O)c(C(=O)O)cn1c23` [左, 左氧氟沙星], for which the MIC in data set [1] (setting [4]) came out at 3.1 µg/mL (≈ 8.58 µM).

Consider `CC1(C)S[C@@H]2[C@H](NC(=O)[C@H](N)c3ccc(O)cc3)C(=O)N2[C@H]1C(=O)O` [阿, 阿莫西林], for which the MIC in data set [1] (setting [4]) is 0.05 µg/mL (≈ 0.137 µM).

For `COc1ccc2[nH]c([S+]([O-])Cc3ncc(C)c(OC)c3C)nc2c1` (stereo not drawn) [奥, 奥美拉唑], the MIC in data set [1] (setting [4]) is 100 µg/mL (≈ 289 µM).

For the compound `CC[C@H]1OC(=O)[C@H](C)[C@@H](O[C@H]2C[C@@](C)(OC)[C@@H](O)[C@H](C)O2)[C@H](C)[C@@H](O[C@@H]2O[C@H](C)C[C@H](N(C)C)[C@H]2O)[C@](C)(OC)C[C@@H](C)C(=O)[C@H](C)[C@@H](O)[C@]1(C)O` [克, 克拉霉素], the MIC in data set [1] (setting [4]) came to 0.1 µg/mL (≈ 0.134 µM).

By MIC is commonly meant the lowest concentration found to suppress growth.
